Three compounds from patent publication US20090181972A1, “Novel Inhibitors of Cysteine Proteases, the Pharmaceutical Compositions Thereof and their Therapeutic Applications” (priority 2005, published 2009) can be followed below.

Experiment [1] has as its system PC-3 prostate cancer cells. Briefly: PC3 cell viability and proliferation assay (MTS). The class given is cell-based. As to conditions: Homo sapiens, PC-3, 72 hours incubation, mean of three independent experiments, read-out: PC3 GI50 D3. As to the method: PC-3 prostate cancer cells were obtained from ATCC, and maintained in F-12K medium containing 7% FBS and 1% penicillin/streptomycin. Cells were incubated at 37° C. in a humidified atmosphere containing 5% CO2.
Cell viability was assayed using the MTS technique in 96-well culture plates (CellTiter 96® Aqueous Non-Radioactive Cell Proliferation Assay, Promega) according to the manufacturer's instructions. MTS (3-(4,5-dimethyl-thiazol-2-yl)-5-(3-carboxymethoxyphenyl)-2-(4-sulfophenyl)-2H-tetrazolium) is a MTT-derived tetrazolium that is reduced in metabolically active cells into a soluble, cell-permeant formazan. The amount of formazan, detected by its absorbance at 492 nm is proportional to the number of living, metabolically active cells.
2×10^3 PC3 cells were seeded per well. 24 hours later, the medium was changed and the cells treated in triplicate with the following concentrations of each compound: 10 μM-3.33 μM-1.11 μM-370 nM-123 nM-41 nM-14 nM and 5 nM. The compounds were diluted in 100% DMSO, whose final concentration on cells was kept at 0.5%.
Cells were incubated with the compounds for 72 hours, and their viability then assayed by the addition of MTS for 2 hours. Absorbance at 492 nm was measured directly from the 96-well culture plates. GI50 (Growth Inhibition 50) concentrations for each compound were calculated using a sigmoidal variable slope fit (Prism 4.0, Graphpad Softwares). Values represent mean of three independent experiments.

For experiment [2], the system named is HCT116 colon cancer cells. As to the kind of experiment: HCT116 cell viability and proliferation assay (MTS). The class given is cell-based. As to conditions: Homo sapiens, HCT-116, 72 hours incubation, mean of three independent experiments, read-out: HCT116 GI50 D3. As to the method:
HCT116 colon cancer cells were obtained from ATCC (American Type Culture Collection), and maintained in Mc Coy's 5A medium containing 10% FBS, 3 mM glutamine and 1% penicillin/streptomycin. Cells were incubated at 37° C. in a humidified atmosphere containing 5% CO2.
Cell viability was assayed using the MTS technique in 96-well culture plates (CellTiter 96® Aqueous Non-Radioactive Cell Proliferation Assay, Promega) according to the manufacturer's instructions. MTS (3-(4,5-dimethyl-thiazol-2-yl)-5-(3-carboxymethoxyphenyl)-2-(4-sulfophenyl)-2H-tetra-zolium) is a MTT-derived tetrazolium that is reduced in metabolically active cells into a soluble, cell-permeant formazan. The amount of formazan, detected by its absorbance at 492 nm is proportional to the number of living, metabolically active cells.
10^3 HCT116 cells were seeded per well. 24 hours later, the medium was changed and the cells treated in triplicate with the following concentrations of each compound: 10 μM-3.33 μM-1.11 μM-370 nM-123 nM-41 nM-14 nM and 5 nM. The compounds were diluted in 100% DMSO, whose final concentration on cells was kept at 0.5%.
Cells were incubated with the compounds for 72 hours, and their viability then assayed by the addition of MTS for 2 hours. Absorbance at 492 nm was measured directly from the 96-well culture plates. G150 (Growth Inhibition 50) concentrations for each compound were calculated using a sigmoidal variable slope fit (Prism 4.0, Graphpad Softwares). Values represent mean of three independent experiments.

The target in the next experiment is T1, SENP1 (Homo sapiens, UniProt Q9P0U3).
T1 construct: made in house; host or cells: E. coli BL21
T1 sequence (Q9P0U3 1-644): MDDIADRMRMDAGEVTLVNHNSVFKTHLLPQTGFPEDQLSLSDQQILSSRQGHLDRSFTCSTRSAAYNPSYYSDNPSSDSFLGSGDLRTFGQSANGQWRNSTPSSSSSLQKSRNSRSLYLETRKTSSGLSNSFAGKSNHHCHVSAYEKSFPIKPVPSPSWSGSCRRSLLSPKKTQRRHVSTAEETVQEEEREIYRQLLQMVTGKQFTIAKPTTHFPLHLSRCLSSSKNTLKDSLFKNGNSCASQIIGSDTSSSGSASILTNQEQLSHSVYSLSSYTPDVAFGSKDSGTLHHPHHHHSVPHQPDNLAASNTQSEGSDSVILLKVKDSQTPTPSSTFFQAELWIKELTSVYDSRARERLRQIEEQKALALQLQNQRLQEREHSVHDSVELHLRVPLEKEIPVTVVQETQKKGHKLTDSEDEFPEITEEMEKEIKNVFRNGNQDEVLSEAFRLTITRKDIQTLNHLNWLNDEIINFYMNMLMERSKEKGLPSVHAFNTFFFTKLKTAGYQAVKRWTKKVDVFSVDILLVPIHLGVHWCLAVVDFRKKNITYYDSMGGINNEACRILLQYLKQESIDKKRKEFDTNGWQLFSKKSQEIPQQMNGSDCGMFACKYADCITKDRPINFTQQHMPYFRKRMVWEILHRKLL
Briefly: SENP1 activity assay. The class given is biochemical. As to conditions: MBP-SENP1 1.8 nM, 200 nM SUMO-AMC; pre-incubated 30 minutes at 25° C., 60 minutes at 37° C.; sigmoidal fit. As to the method: The cDNA encoding SENP1 was obtained by PCR amplification from placenta mRNA. SENP1 cDNA was subcloned by PCR into a bacterial expression vector (pMAL-C2X; New England BioLabs, Inc). The sequence was ascertained by sequencing of the entire open reading frame. pMAL-C2-SENP1 was transformed into BL21 cells and grown in LB-ampicillin medium supplemented with glucose (2 g.l^−1). Fusion protein expression was induced by IPTG (0.5 mM). Bacterial cell lysates were harvested and lyzed in lysis buffer (Tris HCl 20 mM pH 7.4; 1 mM EDTA; 200 mM NaCl; 0.5% Triton X-100; 10 % glycerol; Protease Inhibitor Cocktail) followed by sonication. Proteins were affinity purified on amylose affinity resin (New England BioLabs, Inc). Bound materials were extensively washed in wash buffer (20 mM Tris HCl pH 7.4; 200 mM NaCl; 1 mM EDTA; 0.5% Triton X-100; 10% glycerol) and eluted from the resin in 10 mM maltose-containing wash buffer. Proteins were dialyzed in dialysis buffer (Tris HCl pH 7.6 20 mM; NaCl 200 mM; DTT 1 mM; EDTA 1 mM; 10% Glycerol). Proteins purifications were analyzed on 4-12% NuPAGE (Invitrogen).
MBP-SENP1 was diluted in SENP1 buffer (50 mM Tris HCl; 0.5 mM EDTA; 5 mM DTT; 0.01 % Triton X-100; Bovine Serum Albumin 0.05 mg.ml^−1 pH 7.6). Compounds stocks (100 mM) were stored at −20° C. in DMSO. Compounds were tested at the following final concentrations: 100 μM; 33.3 μM; 11.1 μM; 3.7 μM; 1.23 μM; 412 nM; 137 nM; 45.7 nM; 15.2 nM; 5 nM.
Reactions were performed as duplicates in Black LJL 96 well plates (HE microplates; Molecular Devices; 20 μl final reaction volume). The substrate concentration for SENP1 was 200 nM SUMO-AMC (Chem. Biol., 2003, 10, p. 837-846) (Boston Biochem). The concentration of the enzyme (SENP1) in specificity assays was 1.8 nM. The concentrations were determined in order to perform specificity assays under initial velocities at fixed substrate concentration. Compounds were pre-incubated with enzymes for 30 minutes at 25° C. Reactions were initiated by addition of substrate to the plates containing the enzymes (+/− compounds) diluted in assay buffer. Reactions were incubated for 60 minutes at 37° C. Reactions were stopped by adding acetic acid (100 mM final). Readings were performed on a Pherastar Fluorescent Reader (BMG). λ Emission 380 nm; λ Excitation=460 nm. Data (mean values +/− standard deviation) were analyzed as % of control (no compound) and plotted as percentage versus the Log of the compound concentration using GraphPad (Prism). Data were fitted to a sigmoidal model (variable slope).

A further experiment concerns the target T2, Caspase 3 (Homo sapiens, UniProt P42574).
T2 sequence (P42574 29-175 limits assumed): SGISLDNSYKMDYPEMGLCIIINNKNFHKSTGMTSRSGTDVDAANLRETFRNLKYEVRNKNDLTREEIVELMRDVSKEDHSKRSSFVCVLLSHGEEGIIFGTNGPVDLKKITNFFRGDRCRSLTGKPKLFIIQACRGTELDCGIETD
T2 sequence (P42574 176-277 limits assumed): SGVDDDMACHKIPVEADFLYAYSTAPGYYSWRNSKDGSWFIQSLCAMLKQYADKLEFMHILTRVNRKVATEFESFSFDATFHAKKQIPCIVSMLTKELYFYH
Briefly: Caspase 3 activity assay. In kind it is biochemical. Particulars: 500 nM Ac-DEVD-AMC, 3.2 nM enzyme; pre-incubated 30 minutes at 25° C., 60 minutes at 37° C.; sigmoidal fit. As to the method: Caspase 3 was diluted in Caspase 3 buffer (100 mM Hepes pH 7.5; 10% sucrose; 0.1% CHAPS). Compounds stocks (100 mM) were stored at −20° C. in DMSO. Compounds were tested at the following final concentrations: 100 μM; 33.3 μM; 11.1 μM; 3.7 μM; 1.23 μM; 412 nM; 137 nM; 45.7 nM; 15.2 nM; 5 nM. Reactions were performed as duplicates in Black LJL 96 well plates (HE microplates; Molecular Devices; 20 μl final reaction volume). The substrate concentration for caspase 3 specificity assay was 500 nM (Ac-DEVD-AMC; Promega). The concentration of the enzyme (Caspase 3) in specificity assays was 3.2 nM. The concentrations were determined in order to perform specificity assays under initial velocities at fixed substrate concentration. Compounds were pre-incubated with enzymes for 30 minutes at 25° C. Reactions were initiated by addition of substrate to the plates containing the enzymes (+/− compounds) diluted in assay buffer. Reactions were incubated for 60 minutes at 37° C. Reactions were stopped by adding acetic acid (100 mM final). Readings were performed on a Pherastar Fluorescent Reader (BMG). δ Emission 380 nm; δ Excitation=460 nm. Data (mean values +/− standard deviation) were analyzed as % of control (no compound) and plotted as percentage versus the Log of the compound concentration using GraphPad (Prism). Data were fitted to a sigmoidal model (variable slope).

On to `Cc1nnc2nc3c(nn12)C(=O)c1ccccc1-3` [Example 1b/A, 1-Methyl-2,3,4,10,10a-pentaaza-cyclopenta[b]fluoren-9-one], for which the GI50 amounted to 7090 nM in experiment [1] and 1300 nM in experiment [2]. At SENP1, this compound displayed an IC50 of more than 100000 nM.

As for `Nc1nnc2nc3c(nn12)-c1ccccc1C3=O` [Example 1c/B, 3-Amino-1,2,3a,4,10-pentaaza-cyclopenta[b]fluoren-9-one], the GI50 is 3170 nM in experiment [1] and 981 nM in experiment [2]. For the same compound, on Caspase 3, inhibition was half-maximal at 212 nM (IC50).

As for `O=C1c2ccccc2-c2nc3nnc(CO)n3nc21` [Example 1h/A, 1-Hydroxymethyl-2,3,4,10,10a-pentaaza-cyclopenta[b]fluoren-9-one], the figures for the GI50 in experiment [1] and in experiment [2] were 4000 nM and 2050 nM, respectively. The concentration for half-maximal inhibition (IC50) against SENP1 was more than 100000 nM.
